Values joined by “and” are separate entries in the source; they are usually repeats but may differ in a detail not shown here. Equal entries are not always repeated.
Tested on: KRAS patient-derived spheroids with HUVEC/MSC, viability
Assay: Anticancer human tumor 323965-272-R-J2-PDC patient-derived pancreatic carcinoma cell line growth inhibition [KRAS2]
Details: for viability, T/C: stronger effect = lower value
How it was run: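 KRAS-mutant tumor cells were grown as spheroids with HUVEC endothelial cells and human MSCs as stroma. Targeted agents were tested alone and with KRAS pathway inhibitors. Doses started at or near clinical Cmax, or 10 microM, descending half-log.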

[1] = curve of first compound, second compound 0.1 µM
[2] = curve of first compound, second compound 0.316 µM
[3] = curve of first compound, second compound 1 µM
[4] = curve of first compound, second compound 3.16 µM
[5] = curve of first compound, second compound 10 µM
[6] = second compound 0.1 µM, first compound 0.0316 µM
[7] = second compound 0.1 µM, first compound 0.1 µM
[8] = second compound 0.1 µM, first compound 0.316 µM
[9] = second compound 0.1 µM, first compound 1 µM
[10] = second compound 0.316 µM, first compound 0.0316 µM
[11] = second compound 0.316 µM, first compound 0.1 µM
[12] = second compound 0.316 µM, first compound 0.316 µM
[13] = second compound 0.316 µM, first compound 1 µM
[14] = second compound 1 µM, first compound 0.0316 µM
[15] = second compound 1 µM, first compound 0.1 µM
[16] = second compound 1 µM, first compound 0.316 µM
[17] = second compound 1 µM, first compound 1 µM
[18] = second compound 3.16 µM, first compound 0.0316 µM
[19] = second compound 3.16 µM, first compound 0.1 µM
[20] = second compound 3.16 µM, first compound 0.316 µM
[21] = second compound 3.16 µM, first compound 1 µM
[22] = second compound 10 µM, first compound 0.0316 µM
[23] = second compound 10 µM, first compound 0.1 µM
[24] = second compound 10 µM, first compound 0.316 µM
[25] = second compound 10 µM, first compound 1 µM
[26] = second compound 0.1 µM, first compound 0.000316 µM
[27] = second compound 0.1 µM, first compound 0.001 µM
[28] = second compound 0.1 µM, first compound 0.00316 µM
[29] = second compound 0.1 µM, first compound 0.01 µM
[30] = second compound 0.316 µM, first compound 0.000316 µM
[31] = second compound 0.316 µM, first compound 0.001 µM
[32] = second compound 0.316 µM, first compound 0.00316 µM
[33] = second compound 0.316 µM, first compound 0.01 µM
[34] = second compound 1 µM, first compound 0.000316 µM
[35] = second compound 1 µM, first compound 0.001 µM
[36] = second compound 1 µM, first compound 0.00316 µM
[37] = second compound 1 µM, first compound 0.01 µM
[38] = second compound 3.16 µM, first compound 0.000316 µM
[39] = second compound 3.16 µM, first compound 0.001 µM
[40] = second compound 3.16 µM, first compound 0.00316 µM
[41] = second compound 3.16 µM, first compound 0.01 µM
[42] = second compound 10 µM, first compound 0.000316 µM
[43] = second compound 10 µM, first compound 0.001 µM
[44] = second compound 10 µM, first compound 0.00316 µM
[45] = second compound 10 µM, first compound 0.01 µM
[46] = compound alone, run of 08/26/2021
[47] = compound alone, run of 09/02/2021
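Further: spheroids exposed to agents for 7 days.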
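Wherever viability, T/C is given: 100% = DMSO vehicle control viability.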

COc1cc(Nc2ncc3c(n2)-c2ccc(Cl)cc2C(c2c(F)cccc2OC)=NC3)ccc1C(=O)O + C=CC(=O)N1CCN(c2nc(=O)n(-c3c(C)ccnc3C(C)C)c3nc(-c4c(O)cccc4F)c(F)cc23)C(C)C1
IC50 [1]: < 31.6 nM | IC50 [2]: < 31.6 nM | IC50 [3]: < 31.6 nM | IC50 [4]: < 31.6 nM | IC50 [5]: < 31.6 nM | viability, T/C [6]: 53.5% | viability, T/C [7]: 36.2% | viability, T/C [8]: 26.4% | viability, T/C [9]: 31.7% | viability, T/C (second compound 0.1 µM, first compound 3.16 µM): 43.3% | viability, T/C (second compound 0.1 µM, first compound 10 µM): 46.3% | viability, T/C [10]: 54.1% | viability, T/C [11]: 35.3% | viability, T/C [12]: 28.8% | viability, T/C [13]: 30.1% | viability, T/C (second compound 0.316 µM, first compound 3.16 µM): 39.8% | viability, T/C (second compound 0.316 µM, first compound 10 µM): 51.6% | viability, T/C [14]: 53% | viability, T/C [15]: 34% | viability, T/C [16]: 24.2% | viability, T/C [17]: 33.2% | viability, T/C (second compound 1 µM, first compound 3.16 µM): 47.7% | viability, T/C (second compound 1 µM, first compound 10 µM): 51.5% | viability, T/C [18]: 46.5% | viability, T/C [19]: 27.5% | viability, T/C [20]: 22.2% | viability, T/C [21]: 34.1% | viability, T/C (second compound 3.16 µM, first compound 3.16 µM): 34.7% | viability, T/C (second compound 3.16 µM, first compound 10 µM): 38.4% | viability, T/C [22]: 27.3% | viability, T/C [23]: 18.9% | viability, T/C [24]: 20.2% | viability, T/C [25]: 23% | viability, T/C (second compound 10 µM, first compound 3.16 µM): 23.7% | viability, T/C (second compound 10 µM, first compound 10 µM): 27.1%

CN(C)C/C=C/C(=O)Nc1cc2c(Nc3ccc(F)c(Cl)c3)ncnc2cc1O[C@H]1CCOC1 + CC1OCC2(CCN(c3cnc(Sc4ccnc(N)c4Cl)c(N)n3)CC2)C1N
IC50 [1]: > 100 nM | IC50 [2]: 0.979 nM | IC50 [3]: > 100 nM | IC50 [4]: < 0.316 nM | IC50 [5]: > 100 nM | viability, T/C [26]: 68.4% | viability, T/C [27]: 75.9% | viability, T/C [28]: 65.4% | viability, T/C [29]: 57.8% | viability, T/C [6]: 57.7% | viability, T/C [7]: 58.6% | viability, T/C [30]: 63% | viability, T/C [31]: 49% | viability, T/C [32]: 48.1% | viability, T/C [33]: 38.1% | viability, T/C [10]: 41.1% | viability, T/C [11]: 44.6% | viability, T/C [34]: 96.4% | viability, T/C [35]: 95.8% | viability, T/C [36]: 78.5% | viability, T/C [37]: 75.2% | viability, T/C [14]: 64.6% | viability, T/C [15]: 63.3% | viability, T/C [38]: 39% | viability, T/C [39]: 33% | viability, T/C [40]: 27.4% | viability, T/C [41]: 27.7% | viability, T/C [18]: 28.6% | viability, T/C [19]: 34.7% | viability, T/C [42]: 107% | viability, T/C [43]: 96.9% | viability, T/C [44]: 70.5% | viability, T/C [45]: 56% | viability, T/C [22]: 59.8% | viability, T/C [23]: 55.9%

CN(C)C/C=C/C(=O)Nc1cc2c(Nc3ccc(F)c(Cl)c3)ncnc2cc1O[C@H]1CCOC1 + CNCc1ccccc1-c1csc(C(C)Nc2nc(C)nc3cc(OC)c(OC)cc23)c1
IC50 [1]: > 100 nM | IC50 [2]: > 100 nM | IC50 [3]: > 100 nM | IC50 [4]: > 100 nM | IC50 [5]: < 0.316 nM | viability, T/C [26]: 91.6% | viability, T/C [27]: 80.5% | viability, T/C [28]: 94.3% | viability, T/C [29]: 70.6% | viability, T/C [6]: 59.6% | viability, T/C [7]: 62.7% | viability, T/C [30]: 83.8% | viability, T/C [31]: 82.1% | viability, T/C [32]: 74.3% | viability, T/C [33]: 64.2% | viability, T/C [10]: 59.2% | viability, T/C [11]: 57.8% | viability, T/C [34]: 82.3% | viability, T/C [35]: 81.4% | viability, T/C [36]: 75.2% | viability, T/C [37]: 60.6% | viability, T/C [14]: 63.3% | viability, T/C [15]: 65.1% | viability, T/C [38]: 73.8% | viability, T/C [39]: 63.7% | viability, T/C [40]: 79.1% | viability, T/C [41]: 79.6% | viability, T/C [18]: 47.2% | viability, T/C [19]: 71.9% | viability, T/C [42]: 0.21% | viability, T/C [43]: 0.21% | viability, T/C [44]: 1.04% | viability, T/C [45]: 0.21% | viability, T/C [22]: 0.2% | viability, T/C [23]: 0.78%

CCN1CCN(Cc2ccc(Nc3ncc(F)c(-c4cc(F)c5nc(C)n(C(C)C)c5c4)n3)nc2)CC1 + C=CC(=O)N1CCN(c2nc(=O)n(-c3c(C)ccnc3C(C)C)c3nc(-c4c(O)cccc4F)c(F)cc23)C(C)C1
IC50 [1]: 8.91 nM | IC50 [2]: 6.62 nM | IC50 [3]: 11.7 nM | IC50 [4]: 6.49 nM | IC50 [5]: < 3.16 nM | viability, T/C [28]: 57.6% | viability, T/C [29]: 54.7% | viability, T/C [6]: 39.8% | viability, T/C [7]: 37.5% | viability, T/C [8]: 37.1% | viability, T/C [9]: 43.1% | viability, T/C [32]: 59.8% | viability, T/C [33]: 46.5% | viability, T/C [10]: 38.7% | viability, T/C [11]: 29.6% | viability, T/C [12]: 33.5% | viability, T/C [13]: 43.8% | viability, T/C [36]: 51% | viability, T/C [37]: 52.8% | viability, T/C [14]: 36.4% | viability, T/C [15]: 35.5% | viability, T/C [16]: 31.6% | viability, T/C [17]: 48.8% | viability, T/C [40]: 56.6% | viability, T/C [41]: 49.1% | viability, T/C [18]: 38.1% | viability, T/C [19]: 39.5% | viability, T/C [20]: 33.4% | viability, T/C [21]: 51.5% | viability, T/C [44]: 38.6% | viability, T/C [45]: 52.2% | viability, T/C [22]: 37.6% | viability, T/C [23]: 36.5% | viability, T/C [24]: 37.1% | viability, T/C [25]: 45.4%

CCN1CCN(Cc2ccc(Nc3ncc(F)c(-c4cc(F)c5nc(C)n(C(C)C)c5c4)n3)nc2)CC1 + C=CC(=O)N1CCN(c2nc(OCC3CCCN3C)nc3c2CCN(c2cccc4cccc(C)c24)C3)CC1CC#N
IC50 (curve of first compound, second compound 0.0316 µM): 8.21 nM | IC50 [1]: 4.98 nM | IC50 [2]: < 3.16 nM | IC50 [3]: 6.25 nM | IC50 [4]: < 3.16 nM | viability, T/C (second compound 0.0316 µM, first compound 0.00316 µM): 60.6% | viability, T/C (second compound 0.0316 µM, first compound 0.01 µM): 51.1% | viability, T/C (second compound 0.0316 µM, first compound 0.0316 µM): 39.1% | viability, T/C (second compound 0.0316 µM, first compound 0.1 µM): 38.6% | viability, T/C (second compound 0.0316 µM, first compound 0.316 µM): 37.2% | viability, T/C (second compound 0.0316 µM, first compound 1 µM): 45.5% | viability, T/C [28]: 53.6% | viability, T/C [29]: 46% | viability, T/C [6]: 39.1% | viability, T/C [7]: 31.2% | viability, T/C [8]: 31.7% | viability, T/C [9]: 44% | viability, T/C [32]: 45% | viability, T/C [33]: 44.8% | viability, T/C [10]: 33.8% | viability, T/C [11]: 32.8% | viability, T/C [12]: 31.9% | viability, T/C [13]: 38.8% | viability, T/C [36]: 58.6% | viability, T/C [37]: 45.9% | viability, T/C [14]: 36.6% | viability, T/C [15]: 28.8% | viability, T/C [16]: 30.3% | viability, T/C [17]: 36.1% | viability, T/C [40]: 3% | viability, T/C [41]: 4.98% | viability, T/C [18]: 3.68% | viability, T/C [19]: 2.57% | viability, T/C [20]: 3.48% | viability, T/C [21]: 0.89%

C=CC(=O)N1CCN(c2nc(=O)n(-c3c(C)ccnc3C(C)C)c3nc(-c4c(O)cccc4F)c(F)cc23)C(C)C1 (stereo not drawn)
viability, T/C (compound 0.1 µM): 58.9% [middle of 17 runs] | viability, T/C (compound 0.316 µM): 58.4% [middle of 17 runs] | viability, T/C (compound 1 µM): 59.1% [middle of 17 runs] | viability, T/C (compound 3.16 µM): 60.4% [middle of 17 runs] | viability, T/C (compound 10 µM): 52% [middle of 17 runs] | IC50 (compound alone, run of 08/19/2021): > 10000 nM and 2730 nM | IC50 [46]: > 10000 nM and 7820 nM and 9640 nM | IC50 [47]: > 10000 nM

CC1OCC2(CCN(c3cnc(Sc4ccnc(N)c4Cl)c(N)n3)CC2)C1N (stereo not drawn)
viability, T/C (compound 0.0316 µM): 77.5% and 85.9% and 85.1% | viability, T/C (compound 0.316 µM): 60% [middle of 19 runs] | IC50 [46]: 785 nM [middle of 5 runs] | IC50 [47]: 535 nM [middle of 6 runs] | IC50 (curve of compound): 1.1 µM [middle of 5 runs]
